Test results published in patent US20190263804A1, “AZABENZIMIDAZOLE DERIVATIVES AS PI3K BETA INHIBITORS” (Janssen Pharmaceutica NV, priority 2016, published 2019).

target: T1, PIK3Cγ_h (Homo sapiens, UniProt P48736); test: KINOMEscan enzyme binding assay, PIK3Cγ; conditions: KINOMEscan (DiscoveRx)
T1 construct: purchased DiscoveRx Corporation, San Diego (contract assay service)
Experimental: (§1) Enzyme Binding Assays (KINOMEscan®)
(§2) Kinase enzyme binding affinities of compounds disclosed herein were determined using the KINOMEscan technology performed by DiscoveRx Corporation, San Diego, Calif., USA (www.kinomescan.com). Table A reports the obtained Kd values (nM), with the Kd being the inhibitor binding constant (‘n.d.’ means not determined): […]

T1 sequence (P48736 whole entry): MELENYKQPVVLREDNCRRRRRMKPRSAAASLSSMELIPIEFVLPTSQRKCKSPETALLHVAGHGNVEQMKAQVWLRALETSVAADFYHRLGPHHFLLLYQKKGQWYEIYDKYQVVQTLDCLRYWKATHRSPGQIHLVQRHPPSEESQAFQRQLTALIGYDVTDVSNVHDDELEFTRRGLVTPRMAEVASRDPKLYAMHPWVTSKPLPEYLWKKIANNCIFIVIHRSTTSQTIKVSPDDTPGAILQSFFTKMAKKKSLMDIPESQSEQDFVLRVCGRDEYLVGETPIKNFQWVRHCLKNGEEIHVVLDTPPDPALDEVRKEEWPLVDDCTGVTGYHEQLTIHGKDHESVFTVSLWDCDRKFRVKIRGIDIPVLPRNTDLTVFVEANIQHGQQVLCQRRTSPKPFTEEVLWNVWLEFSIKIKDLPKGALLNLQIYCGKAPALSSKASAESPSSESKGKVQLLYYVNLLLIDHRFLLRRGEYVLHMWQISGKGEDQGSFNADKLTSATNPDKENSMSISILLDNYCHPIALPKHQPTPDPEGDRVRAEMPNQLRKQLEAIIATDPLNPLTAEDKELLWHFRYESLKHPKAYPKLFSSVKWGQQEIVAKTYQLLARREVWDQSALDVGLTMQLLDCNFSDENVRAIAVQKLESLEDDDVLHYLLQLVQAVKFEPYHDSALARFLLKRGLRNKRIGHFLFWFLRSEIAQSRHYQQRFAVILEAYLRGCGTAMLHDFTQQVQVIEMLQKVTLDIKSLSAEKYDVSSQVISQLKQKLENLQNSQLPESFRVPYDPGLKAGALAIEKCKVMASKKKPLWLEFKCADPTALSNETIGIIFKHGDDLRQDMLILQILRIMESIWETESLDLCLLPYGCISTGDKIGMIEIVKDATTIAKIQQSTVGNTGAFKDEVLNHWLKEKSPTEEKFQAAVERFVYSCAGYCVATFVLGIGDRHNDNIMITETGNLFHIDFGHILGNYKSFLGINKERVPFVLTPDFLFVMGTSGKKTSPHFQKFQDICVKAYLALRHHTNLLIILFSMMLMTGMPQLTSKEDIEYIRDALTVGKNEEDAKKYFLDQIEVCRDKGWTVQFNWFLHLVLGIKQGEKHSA

Row | Structure (SMILES) | Kd
1 | Cc1c(Cn2c(C)nc3c(N)nc(N4CCOCC4)cc32)cccc1C(F)(F)F [Compound 15] | > 30200 nM
2 | Cc1c(F)cccc1Cn1c(C)nc2c(N)nc(N3CCOCC3)cc21 [Compound 16] | > 30200 nM
3 | Cc1c(Cn2c(CN3CC4(CC(O)C4)C3)nc3cnc(N4CCOCC4)cc32)cccc1C(F)(F)F [Compound 3] | > 30200 nM
4 | Cc1c(Cn2c(CO)nc3cnc(N4CCOCC4)cc32)cccc1C(F)(F)F [Compound 6] | 18200 nM
5 | Cc1nc2cnc(N3CCOCC3)cc2n1Cc1cccc2c1CN(C)CC2 [Compound 10] | > 30200 nM
6 | Cc1c(F)cccc1Cn1c(C)nc2c(N)nc(C3=CCOCC3)cc21 [Compound 14] | 21900 nM
7 | Cc1cccc(Cn2c(C)nc3c(N)nc(C4=CCOCC4)cc32)c1C [Compound 12] | > 30200 nM
8 | Cc1cccc(Cn2c(C)nc3c(N)nc(N4CCOCC4)cc32)c1C [Compound 17] | > 30200 nM
9 | Cc1c(Cn2c(CN3CC(O)C3)nc3cnc(N4CCOCC4)cc32)cccc1C(F)(F)F [Compound 7] | > 30200 nM

target: T2, PIK3Cδ_h (Homo sapiens, UniProt O00329); test: KINOMEscan enzyme binding assay, PIK3Cδ; conditions: KINOMEscan (DiscoveRx)
T2 construct: purchased DiscoveRx Corporation, San Diego (contract assay service)
T2 sequence (O00329 1-1044): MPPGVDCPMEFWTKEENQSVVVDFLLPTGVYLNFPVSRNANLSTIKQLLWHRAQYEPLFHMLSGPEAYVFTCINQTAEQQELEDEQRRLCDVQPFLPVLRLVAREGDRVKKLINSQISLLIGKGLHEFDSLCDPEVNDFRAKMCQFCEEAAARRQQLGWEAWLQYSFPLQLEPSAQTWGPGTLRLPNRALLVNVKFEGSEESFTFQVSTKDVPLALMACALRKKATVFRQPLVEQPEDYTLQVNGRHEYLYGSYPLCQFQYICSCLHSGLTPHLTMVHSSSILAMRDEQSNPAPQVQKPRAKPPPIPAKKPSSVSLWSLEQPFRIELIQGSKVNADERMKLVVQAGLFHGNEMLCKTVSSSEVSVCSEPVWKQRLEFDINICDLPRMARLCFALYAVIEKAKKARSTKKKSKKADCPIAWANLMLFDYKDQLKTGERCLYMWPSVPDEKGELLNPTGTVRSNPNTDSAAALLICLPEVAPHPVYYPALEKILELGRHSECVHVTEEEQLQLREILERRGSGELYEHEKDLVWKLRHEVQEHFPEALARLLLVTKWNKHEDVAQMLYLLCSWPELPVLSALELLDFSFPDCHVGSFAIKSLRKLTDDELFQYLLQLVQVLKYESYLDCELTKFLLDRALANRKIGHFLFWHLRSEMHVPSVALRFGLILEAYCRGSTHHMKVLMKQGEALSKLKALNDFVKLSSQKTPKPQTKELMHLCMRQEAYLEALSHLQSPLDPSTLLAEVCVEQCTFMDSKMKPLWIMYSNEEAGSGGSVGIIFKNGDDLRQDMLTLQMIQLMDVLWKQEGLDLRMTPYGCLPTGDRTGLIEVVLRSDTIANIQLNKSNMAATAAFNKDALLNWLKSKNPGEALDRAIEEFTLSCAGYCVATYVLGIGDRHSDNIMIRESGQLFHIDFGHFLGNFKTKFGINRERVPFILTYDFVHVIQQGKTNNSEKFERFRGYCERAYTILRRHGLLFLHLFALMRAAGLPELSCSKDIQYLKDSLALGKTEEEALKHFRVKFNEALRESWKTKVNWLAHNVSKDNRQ
Experimental: as §1, §2

Row | Structure (SMILES) | Kd
10 | Cc1c(Cn2c(C)nc3c(N)nc(N4CCOCC4)cc32)cccc1C(F)(F)F [Compound 15] | 6300 nM
11 | Cc1c(F)cccc1Cn1c(C)nc2c(N)nc(N3CCOCC3)cc21 [Compound 16] | 5600 nM
12 | Cc1c(Cn2c(CN3CC4(CC(O)C4)C3)nc3cnc(N4CCOCC4)cc32)cccc1C(F)(F)F [Compound 3] | 200 nM
13 | Cc1c(Cn2c(CO)nc3cnc(N4CCOCC4)cc32)cccc1C(F)(F)F [Compound 6] | 800 nM
14 | Cc1nc2cnc(N3CCOCC3)cc2n1Cc1cccc2c1CN(C)CC2 [Compound 10] | 4200 nM
15 | Cc1c(F)cccc1Cn1c(C)nc2c(N)nc(C3=CCOCC3)cc21 [Compound 14] | 3300 nM
16 | Cc1cccc(Cn2c(C)nc3c(N)nc(C4=CCOCC4)cc32)c1C [Compound 12] | 700 nM
17 | Cc1cccc(Cn2c(C)nc3c(N)nc(N4CCOCC4)cc32)c1C [Compound 17] | 1500 nM
18 | Cc1c(Cn2c(CN3CC(O)C3)nc3cnc(N4CCOCC4)cc32)cccc1C(F)(F)F [Compound 7] | 1100 nM

system: phosphorylation of Akt (Thr308) in PC-3 cells; test: Cellular assay: phospho-Akt (Thr308) MSD ELISA in PC-3 cells; format: cell-based; conditions: Homo sapiens, 1 h, 60 min compound incubation, read-out: IC50 pAkt_Thr308
Experimental: (§3) Cellular activity of PI3K(3 inhibitors was determined by quantifying the phosphorylation of Akt in PC-3 cells. Akt phosphorylated at Ser473 and Thr308 were measured using an enzyme-linked immunosorbent assay (ELISA; Meso Scale Discovery (MSD), Gaithersburg, Md.) and specific primary antibodies from MSD.
(§4) On day 1, PC3 cells (ATCC # […]) were seeded into PerkinElmer MW96 plates at 25.000 cells per well, in 75 μl complete culture medium (DMEM high glucose, AQmedia™, D0819, Sigma-Aldrich) containing 10% heat inactivated FCS and incubated at 37° C., 5% CO2 during 24 hours. On day 2, compound or DMSO (0.3%) was added and cells were further incubated for 60 min at 37° C., 5% CO2 in a total volume of 100 μl of medium.
(§5) The phosphoprotein assay was executed according to vendor instructions in the Phospho-Akt (Ser473) Assay Whole Cell Lysate Kit (MSD # K15100D-3) and the Phospho-Akt (Thr308) Assay Whole Cell Lysate Kit (MSD # K151DYD-3) using the lysis, blocking and wash buffer provided.
(§6) Briefly, at the end of the cell treatment period, media were removed by aspiration and adherent cells were lysed in 50 μl ice-cold lysis buffer. MSD plates are supplied pre-coated with capture antibodies for Phospho-Akt (Ser473 and Thr308). After blocking, lysates from tissue culture plates were added and plates were washed. Then, a solution containing the detection antibody (anti-total Akt conjugated with an electrochemiluminescent compound-MSD Sulfo-tag label) was added. The signals were detected using an MSD SECTOR Imager 6000 and are proportional to the phospho-Akt titres.
(§7) Data were processed. The percentage of inhibition was plotted against the log concentration of test compounds, and the sigmoidal log concentration-effect curve of best fit was calculated by nonlinear regression analysis. From these concentration-response curves, the IC50 values were calculated. Five concentrations were used for curve fitting.

Row | Structure (SMILES) | IC50
19 | Cc1c(Cn2c(C)nc3c(N)nc(N4CCOCC4)cc32)cccc1C(F)(F)F [Compound 15] | 90 nM
20 | Cc1c(F)cccc1Cn1c(C)nc2c(N)nc(N3CCOCC3)cc21 [Compound 16] | 180 nM
21 | Cc1c(Cn2c(CN3CC4(CC(O)C4)C3)nc3cnc(N4CCOCC4)cc32)cccc1C(F)(F)F [Compound 3] | 40 nM
22 | Cc1c(Cn2c(CO)nc3cnc(N4CCOCC4)cc32)cccc1C(F)(F)F [Compound 6] | 40 nM
23 | Cc1nc2cnc(N3CCOCC3)cc2n1Cc1cccc2c1CN(C)CC2 [Compound 10] | > 510 nM
24 | Cc1c(F)cccc1Cn1c(C)nc2c(N)nc(C3=CCOCC3)cc21 [Compound 14] | 220 nM
25 | Cc1cccc(Cn2c(C)nc3c(N)nc(C4=CCOCC4)cc32)c1C [Compound 12] | 110 nM
26 | Cc1cccc(Cn2c(C)nc3c(N)nc(N4CCOCC4)cc32)c1C [Compound 17] | 190 nM
27 | Cc1c(Cn2c(CN3CC(O)C3)nc3cnc(N4CCOCC4)cc32)cccc1C(F)(F)F [Compound 7] | 390 nM

target: T3, PIK3Cα_h (Homo sapiens, UniProt P42336); test: KINOMEscan enzyme binding assay, PIK3Cα; conditions: KINOMEscan (DiscoveRx)
T3 construct: purchased DiscoveRx Corporation, San Diego (contract assay service)
Experimental: as §1, §2

T3 sequence (P42336 whole entry): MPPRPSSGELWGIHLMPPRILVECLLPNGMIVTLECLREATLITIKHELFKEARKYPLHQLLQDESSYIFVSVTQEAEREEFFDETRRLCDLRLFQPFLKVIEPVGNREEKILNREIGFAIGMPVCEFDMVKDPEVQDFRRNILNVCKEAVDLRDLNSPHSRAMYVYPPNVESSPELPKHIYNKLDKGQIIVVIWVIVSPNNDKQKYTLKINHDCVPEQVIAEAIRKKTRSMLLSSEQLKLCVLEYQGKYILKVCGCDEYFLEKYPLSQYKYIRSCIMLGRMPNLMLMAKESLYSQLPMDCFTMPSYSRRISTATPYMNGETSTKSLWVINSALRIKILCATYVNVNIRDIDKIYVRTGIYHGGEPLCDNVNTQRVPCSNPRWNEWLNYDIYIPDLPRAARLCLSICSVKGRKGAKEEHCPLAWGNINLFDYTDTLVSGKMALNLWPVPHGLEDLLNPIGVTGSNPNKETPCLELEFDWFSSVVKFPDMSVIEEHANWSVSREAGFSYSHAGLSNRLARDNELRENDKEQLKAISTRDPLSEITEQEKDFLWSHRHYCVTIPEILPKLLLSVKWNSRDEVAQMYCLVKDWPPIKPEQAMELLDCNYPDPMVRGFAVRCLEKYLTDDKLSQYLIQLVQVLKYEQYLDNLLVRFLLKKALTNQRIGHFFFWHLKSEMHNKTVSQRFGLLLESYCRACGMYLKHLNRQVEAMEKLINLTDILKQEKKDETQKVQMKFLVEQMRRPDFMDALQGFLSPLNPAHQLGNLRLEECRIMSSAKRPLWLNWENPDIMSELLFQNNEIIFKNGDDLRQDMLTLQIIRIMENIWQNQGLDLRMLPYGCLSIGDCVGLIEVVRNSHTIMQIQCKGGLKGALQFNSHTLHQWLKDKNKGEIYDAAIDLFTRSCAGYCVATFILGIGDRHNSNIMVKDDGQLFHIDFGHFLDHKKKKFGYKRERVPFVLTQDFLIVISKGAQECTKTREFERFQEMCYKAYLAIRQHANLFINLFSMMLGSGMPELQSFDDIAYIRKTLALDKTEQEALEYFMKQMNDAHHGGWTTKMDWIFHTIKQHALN

Row | Structure (SMILES) | Kd
28 | Cc1c(Cn2c(C)nc3c(N)nc(N4CCOCC4)cc32)cccc1C(F)(F)F [Compound 15] | 18200 nM
29 | Cc1c(F)cccc1Cn1c(C)nc2c(N)nc(N3CCOCC3)cc21 [Compound 16] | > 30200 nM
30 | Cc1c(Cn2c(CN3CC4(CC(O)C4)C3)nc3cnc(N4CCOCC4)cc32)cccc1C(F)(F)F [Compound 3] | 1600 nM
31 | Cc1c(Cn2c(CO)nc3cnc(N4CCOCC4)cc32)cccc1C(F)(F)F [Compound 6] | 2800 nM
32 | Cc1nc2cnc(N3CCOCC3)cc2n1Cc1cccc2c1CN(C)CC2 [Compound 10] | 26900 nM
33 | Cc1c(F)cccc1Cn1c(C)nc2c(N)nc(C3=CCOCC3)cc21 [Compound 14] | > 30200 nM
34 | Cc1cccc(Cn2c(C)nc3c(N)nc(C4=CCOCC4)cc32)c1C [Compound 12] | 13200 nM
35 | Cc1cccc(Cn2c(C)nc3c(N)nc(N4CCOCC4)cc32)c1C [Compound 17] | 8300 nM
36 | Cc1c(Cn2c(CN3CC(O)C3)nc3cnc(N4CCOCC4)cc32)cccc1C(F)(F)F [Compound 7] | 2200 nM

target: T4, MTOR_h (Homo sapiens, UniProt P42345); test: KINOMEscan enzyme binding assay, MTOR; conditions: KINOMEscan (DiscoveRx)
T4 construct: purchased DiscoveRx Corporation, San Diego (contract assay service)
Experimental: as §1, §2

Row | Structure (SMILES) | Kd
37 | Cc1c(Cn2c(C)nc3c(N)nc(N4CCOCC4)cc32)cccc1C(F)(F)F [Compound 15] | > 30200 nM
38 | Cc1c(F)cccc1Cn1c(C)nc2c(N)nc(N3CCOCC3)cc21 [Compound 16] | > 30200 nM
39 | Cc1c(Cn2c(CN3CC4(CC(O)C4)C3)nc3cnc(N4CCOCC4)cc32)cccc1C(F)(F)F [Compound 3] | > 30200 nM
40 | Cc1c(Cn2c(CO)nc3cnc(N4CCOCC4)cc32)cccc1C(F)(F)F [Compound 6] | ≥ 30200 nM
41 | Cc1nc2cnc(N3CCOCC3)cc2n1Cc1cccc2c1CN(C)CC2 [Compound 10] | > 30200 nM
42 | Cc1c(F)cccc1Cn1c(C)nc2c(N)nc(C3=CCOCC3)cc21 [Compound 14] | > 30200 nM
43 | Cc1cccc(Cn2c(C)nc3c(N)nc(C4=CCOCC4)cc32)c1C [Compound 12] | > 30200 nM
44 | Cc1cccc(Cn2c(C)nc3c(N)nc(N4CCOCC4)cc32)c1C [Compound 17] | > 30200 nM
45 | Cc1c(Cn2c(CN3CC(O)C3)nc3cnc(N4CCOCC4)cc32)cccc1C(F)(F)F [Compound 7] | 4600 nM

target: T5, PIK3Cβ_h (Homo sapiens, UniProt P42338); test: KINOMEscan enzyme binding assay, PIK3Cβ; conditions: KINOMEscan (DiscoveRx)
T5 construct: purchased DiscoveRx Corporation, San Diego (contract assay service)
Experimental: as §1, §2

T5 sequence (P42338 whole entry): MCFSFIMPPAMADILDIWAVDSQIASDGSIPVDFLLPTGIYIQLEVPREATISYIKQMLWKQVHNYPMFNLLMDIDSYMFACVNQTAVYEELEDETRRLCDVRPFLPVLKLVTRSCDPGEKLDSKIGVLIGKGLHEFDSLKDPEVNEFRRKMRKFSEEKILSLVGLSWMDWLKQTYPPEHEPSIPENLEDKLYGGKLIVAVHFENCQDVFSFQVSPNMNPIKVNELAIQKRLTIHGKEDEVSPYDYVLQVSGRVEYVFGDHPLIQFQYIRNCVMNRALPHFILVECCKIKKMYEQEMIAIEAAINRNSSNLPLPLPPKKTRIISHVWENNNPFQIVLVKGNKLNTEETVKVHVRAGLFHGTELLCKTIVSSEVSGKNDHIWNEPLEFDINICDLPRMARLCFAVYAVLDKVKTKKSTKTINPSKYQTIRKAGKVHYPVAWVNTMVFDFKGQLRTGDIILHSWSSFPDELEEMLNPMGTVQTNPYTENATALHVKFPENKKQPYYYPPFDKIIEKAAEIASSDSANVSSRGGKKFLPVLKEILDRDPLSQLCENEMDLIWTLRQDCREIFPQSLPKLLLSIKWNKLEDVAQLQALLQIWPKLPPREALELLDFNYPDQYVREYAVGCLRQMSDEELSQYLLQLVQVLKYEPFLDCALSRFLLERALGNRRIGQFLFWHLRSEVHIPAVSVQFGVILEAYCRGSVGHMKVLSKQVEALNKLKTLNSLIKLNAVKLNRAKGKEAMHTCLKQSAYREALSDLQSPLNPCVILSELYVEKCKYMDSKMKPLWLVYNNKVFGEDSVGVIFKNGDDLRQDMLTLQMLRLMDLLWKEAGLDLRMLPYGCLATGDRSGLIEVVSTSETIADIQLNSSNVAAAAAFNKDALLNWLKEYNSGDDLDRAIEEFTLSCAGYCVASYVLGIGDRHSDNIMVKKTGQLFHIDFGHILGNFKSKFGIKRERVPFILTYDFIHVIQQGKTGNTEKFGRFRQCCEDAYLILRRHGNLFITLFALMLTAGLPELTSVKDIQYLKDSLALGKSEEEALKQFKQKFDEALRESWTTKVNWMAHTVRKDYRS

Row | Structure (SMILES) | Kd
46 | Cc1c(Cn2c(C)nc3c(N)nc(N4CCOCC4)cc32)cccc1C(F)(F)F [Compound 15] | 398 nM
47 | Cc1c(F)cccc1Cn1c(C)nc2c(N)nc(N3CCOCC3)cc21 [Compound 16] | 132 nM
48 | Cc1c(Cn2c(CN3CC4(CC(O)C4)C3)nc3cnc(N4CCOCC4)cc32)cccc1C(F)(F)F [Compound 3] | 1 nM
49 | Cc1c(Cn2c(CO)nc3cnc(N4CCOCC4)cc32)cccc1C(F)(F)F [Compound 6] | 1 nM
50 | Cc1nc2cnc(N3CCOCC3)cc2n1Cc1cccc2c1CN(C)CC2 [Compound 10] | 100 nM
51 | Cc1c(F)cccc1Cn1c(C)nc2c(N)nc(C3=CCOCC3)cc21 [Compound 14] | 11 nM
52 | Cc1cccc(Cn2c(C)nc3c(N)nc(C4=CCOCC4)cc32)c1C [Compound 12] | 3 nM
53 | Cc1cccc(Cn2c(C)nc3c(N)nc(N4CCOCC4)cc32)c1C [Compound 17] | 19 nM
54 | Cc1c(Cn2c(CN3CC(O)C3)nc3cnc(N4CCOCC4)cc32)cccc1C(F)(F)F [Compound 7] | 3 nM

system: phosphorylation of Akt (Ser473) in PC-3 cells; test: Cellular assay: phospho-Akt (Ser473) MSD ELISA in PC-3 cells; format: cell-based; conditions: Homo sapiens, 1 h, 60 min compound incubation, read-out: IC50 pAkt_S473
Experimental: as §3, §4, §5, §6, §7

Row | Structure (SMILES) | IC50
55 | Cc1c(Cn2c(C)nc3c(N)nc(N4CCOCC4)cc32)cccc1C(F)(F)F [Compound 15] | 120 nM
56 | Cc1c(F)cccc1Cn1c(C)nc2c(N)nc(N3CCOCC3)cc21 [Compound 16] | 410 nM
57 | Cc1c(Cn2c(CN3CC4(CC(O)C4)C3)nc3cnc(N4CCOCC4)cc32)cccc1C(F)(F)F [Compound 3] | 70 nM
58 | Cc1c(Cn2c(CO)nc3cnc(N4CCOCC4)cc32)cccc1C(F)(F)F [Compound 6] | 50 nM
59 | Cc1nc2cnc(N3CCOCC3)cc2n1Cc1cccc2c1CN(C)CC2 [Compound 10] | > 510 nM
60 | Cc1c(F)cccc1Cn1c(C)nc2c(N)nc(C3=CCOCC3)cc21 [Compound 14] | 320 nM
61 | Cc1cccc(Cn2c(C)nc3c(N)nc(C4=CCOCC4)cc32)c1C [Compound 12] | 310 nM
62 | Cc1cccc(Cn2c(C)nc3c(N)nc(N4CCOCC4)cc32)c1C [Compound 17] | ~230 nM
63 | Cc1c(Cn2c(CN3CC(O)C3)nc3cnc(N4CCOCC4)cc32)cccc1C(F)(F)F [Compound 7] | 480 nM
